Results from patent US6033669A, “Methods for generating cytotoxic T cells and treatment of diseases thereby” (priority 1992, dated 2000).

Key:
RMA-S cells = assay: Membrane recycling of glycopeptide after pronase treatment; type: cell-based; conditions: pronase treated RMA-S cells, 37° C.; data not shown
Description: Panel A: RMA-s cells were incubated for 24 hours at 26° C. to induce expression of empty D^b MHC-1 chains at the cell surface, and at 37° C., and stained for D^b expression. Panel B: Removal of D^b expression by pronase treatment of RMA-S cells, preincubated at 26° C. Pronase treatment for 2 h and 4 h. D^b removal is complete at 4 h. Panels C and E: 26° C. induced RMA-S cells were treated with the glycopeptides Gal2 -CSG11 (panel C) or Gal2 CAS10 (panel E), 300 μM for 2 h at 37° C., washed and stained for Gal2 expression. Panels D and F: Glycopeptide treated RMA-S cells as in panels C and E were pronase treated to remove Db and glycopeptide expression, washed and further incubated at 37° C. to allow re-expression of glycopeptides and stained for Gal2 expression.
The capacity of the conjugate to be recycled may be assessed by incubating the cells (with bound conjugate) at 37° C. whereupon the glycopeptide will internalise. The temperature may then be lowered and the cells treated with a proteolytic enzyme (e.g. Pronase) to strip off exposed peptide/carbohydrate conjugate. On reheating, recycled conjugate may be detected by probing for the Gal2 epitope using the anti-Gal2 antibody.
Described in FIGS. 10D and F.

EL4 and RMA-S cells = type: cell-based, mice; conditions: pronase treated peptide-coated cells incubated at 37° C.; data not shown
H-2D^b = target: T1, H-2D^b (Mus musculus, UniProt P01899); assay: MHC-1 upregulation on RMA-S cells (D^b); type: cell-based, murine; conditions: RMA-S cells with peptide NP366-374 (50 μM), 6 h; FIG. 8
T1 sequence (P01899 25-362): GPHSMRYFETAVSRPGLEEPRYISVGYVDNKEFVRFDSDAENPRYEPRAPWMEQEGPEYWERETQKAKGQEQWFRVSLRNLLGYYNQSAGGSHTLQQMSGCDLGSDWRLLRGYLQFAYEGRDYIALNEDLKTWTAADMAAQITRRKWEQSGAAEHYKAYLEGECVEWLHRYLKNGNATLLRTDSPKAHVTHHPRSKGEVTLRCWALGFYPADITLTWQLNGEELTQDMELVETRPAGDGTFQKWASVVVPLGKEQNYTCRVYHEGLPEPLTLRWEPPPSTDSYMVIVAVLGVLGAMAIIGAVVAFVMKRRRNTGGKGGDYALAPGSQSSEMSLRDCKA
T1 sequence (P01887 21-119 partner): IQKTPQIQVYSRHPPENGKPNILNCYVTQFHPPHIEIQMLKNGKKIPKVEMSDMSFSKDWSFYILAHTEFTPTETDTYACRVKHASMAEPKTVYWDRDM

CCN(CC)CCCC(C)Nc1ccnc2cc(Cl)ccc12 (stereo not drawn) [chloroquine]
effect on return of the Gal2 epitope to the cell surface (RMA-S cells): inhibited
effect on return of susceptibility to CTL killing (EL4 and RMA-S cells): blocked
effect on peptide mediated MHC-1 (H-2D^b) upregulation (H-2D^b): inhibits this upregulation
